In US4968690A (priority 1989, dated 1990):
pIC50, pKi: −log10 of the molar value. Read-outs that look alike come from different tables or passages of the source.

How the values were obtained:
[1] = background; cited from earlier work
[2] = test system: enzyme which hydrolyzes S-adenosyl-L-homocysteine (AdoHcy); details: background; cited from earlier work
[3] = background; cited from earlier work; remark: listed apart in the source
[4] = target: hamster liver adenosine-homocystine (AdoHyc) hydrolase (Mesocricetus auratus, UniProt A0A1U7RAJ1); assay: Inhibition of hamster liver AdoHcy hydrolase
[5] = test system: cells used to support virus growth; assay: Toxicity to cells used to support virus growth; assay type: cell-based; details: listed concentrations 50, 25, 5 μg/ml
Description: ^(a) Concentrations listed were nontoxic to cells used to support
^(a) Concentrations listed were noncytotoxic to cells used to support

[6] = test system: Polio Type III virus (Sabin oral vaccine strain); assay: microbe, parasite or virus in culture; assay type: cell-based
[7] = test system: HL-60 cells; assay: Cell viability / acute cytotoxicity in HL-60 cells; assay type: cell-based, human
Description: This reduced toxicity provides excellent selectivity and potency as an antiviral agent.

[8] = test system: Dengue virus Type II, strain 16681; assay: Antiviral effect, Dengue II in Vero E6 cells (plaque reduction); assay type: cell-based; details: Vero C1008, read-out: % PFU Reduction, Dengue II
[9] = test system: Coxsackie A9 virus, strain 1861; assay: Antiviral effect, Coxsackie A9 in Viro E6 cells (plaque reduction); assay type: cell-based; details: read-out: % PFU Reduction, Coxsackie 9A
[10] = test system: adenosine deaminase; details: background; cited from earlier work
[11] = test system: L1210 cells; details: background; cited from earlier work
[12] = test system: H.Ep.-2 cells; details: background; cited from earlier work
[13] = test system: quiescent normal cells; details: subtoxic concentrations; cited from earlier work
[14] = test system: malignant cell lines; details: subtoxic concentrations; cited from earlier work
[15] = test system: L1210 leukemia; details: background; cited from earlier work
[16] = test system: DNA synthesis / RNA synthesis in HL-60 cells; assay: DNA and RNA synthesis in HL-60 cells; assay type: cell-based, human
Description: (§1) The effect of this compound on differentiation, and nucleic acid and nucleotide biosynthesis were examined in the malignant human promyelocytic leukemia cell line, HL-60. […] During this exposure interval, pronounced differentiation to mature myeloid cells occurred wherein 95% of the cell population reduced nitroblue tetrazolium four days after exposure to 10^-7 M CPE-C.

[17] = test system: HL-60 cells; assay: Growth inhibition and differentiation of HL-60 cells (nitroblue tetrazolium reduction); assay type: cell-based, human
Description: as §1

[18] = test system: Herpes Simplex Type II virus, strain 28382; assay: Antiviral effect, Herpes Simplex II in mink lung cells (plaque reduction); assay type: cell-based; details: for inhibition at 5 µg/mL: 5 μg/ml; for inhibition at 25 µg/mL: 25 μg/ml
Description: ^(b) Herpes Simplex Type II virus, strain 28382 in mink lung cells.
^(d) Plaque forming units (PFU) is a measure of the infectivity of th
^(e) Multiplicity of infection (MOI) 2.0 PFU/ml.

[19] = test system: c-myc mRNA; assay: c-myc mRNA levels in HL-60 cells; assay type: cell-based, human; details: preceding induction of mature myeloid cells
Description: as §1

[20] = test system: CTP, UTP, ATP, GTP levels in HL-60 cells; assay: Nucleotide (CTP, UTP, ATP, GTP) levels in HL-60 cells; assay type: cell-based, human
Description: as §1

[21] = test system: Dengue virus Type II, strain 16681; assay: Antiviral effect, Dengue Type II in BHK21 cells (plaque reduction); assay type: cell-based; details: for inhibition at 5 µg/mL / inhibition at 25 µg/mL / inhibition at 50 µg/mL: Dengue virus, BHK-21, BHK21 cells, read-out: % PFU Reduction, Dengue Type II; for inhibition at 5 µg/mL: 5 μg/ml; for inhibition at 25 µg/mL: 25 μg/ml; for inhibition at 50 µg/mL: 50 μg/ml
[22] = test system: Adenovirus Type 7, strain V1012; assay: Antiviral effect, Adenovirus 7 in Hep2 cells (plaque reduction); assay type: cell-based
Description: ^(c) Adenovirus Type 7, strain V1012 in Hep2 cells.

[23] = test system: viruses; assay: General antiviral evaluation; assay type: cell-based; details: compared with CPE-C
[24] = test system: L1210 tumor cells; assay: Cytotoxicity against L1210 tumor cells in culture; assay type: cell-based; details: Mus musculus, 48 hour exposure
[25] = read-out: % PFU Reduction, Polio III
[26] = mink lung cells, first value of cell, presumably MOI 2.0 PFU/ml, read-out: % PFU Reduction, Herpes Simplex II (first value)
[27] = mink lung cells, second value of cell, read-out: % PFU Reduction, Herpes Simplex II (second value)
[28] = read-out: % PFU Reduction, Polio Type III

## 3-deazaaristeromycin
[1]
  phosphorylation and deamination: resistance towards phosphorylation and deamination
[2]
  inhibition of AdoHcy-hydrolyzing enzyme (in words): very potent and specific inhibitor
[3]
  side effects: devoid of some of the undesirable side effects

## Nc1nccc2c1ncn2[C@@H]1C=C(CO)[C@@H](O)[C@H]1O [3-Deazaneplanocin A, 4-Amino-1-[(1'R,2'S,3'R)-4'-hydroxymethyl-2',3'-dihydroxy-4'-cyclopenten-1'-yl]imidazo[4,5-c]pyridine]
[4]
  pKi: 10.30
[4]; summary statement
  inhibition of AdoHyc hydrolase (in words): particularly potent inhibitor
[4]; with adenosine
  mode of inhibition: competitive inhibitor
[5]
  toxicity to cells used to support virus growth: nontoxic
[6]; [25]
  inhibition at 5 µg/mL: 44.4%
  inhibition at 25 µg/mL: 77.7%
  inhibition at 50 µg/mL: 83.3%
[7]; summary statement, compared with neplanocin A
  toxicity (in words): without the toxicity of neplanocin A
[7]; two days of continuous exposure
  change in cell viability: Little or no change in cell viability
[8]
  inhibition at 5 µg/mL: 14.2%
  inhibition at 25 µg/mL: 95%
  inhibition at 50 µg/mL: 98.9%
[9]
  inhibition at 5 µg/mL: 69.4%
  inhibition at 25 µg/mL: 77.2%
  inhibition at 50 µg/mL: 89.4%

## Nc1nccc2c1ncn2[C@@H]1O[C@H](CO)[C@@H](O)[C@H]1O [3-deazaadenosine]
[1]
  phosphorylation and deamination: resistance towards phosphorylation and deamination

## Nc1ncnc2c1ncn2[C@@H]1C[C@H](CO)[C@@H](O)[C@H]1O [C-Ado]
[10]
  affinity for adenosine deaminase relative to adenosine: hundredfold lower
  deamination by adenosine deaminase: also deaminated by adenosine deaminase
[11]
  cytotoxicity to L1210 cells in culture: highly cytotoxic
[12]
  cytotoxicity to H.Ep.-2 cells in culture: highly cytotoxic
[13]
  cell proliferation of quiescent normal cells: induced cell proliferation
[14]
  growth in malignant cell lines: inhibited growth
[15]
  activity in in vivo mouse L1210 model: inactivity

## Nc1ccn([C@@H]2C=C(CO)[C@@H](O)[C@H]2O)c(=O)n1 [CPE-C, 4-amino-1-[(1'R,2'S,3'R)-4'-hydroxymethyl-4'-cyclopenten-1'-yl]-2(1H)pyrimidinone]
[16]; 10^-7 M, relative to DNA synthesis
  RNA synthesis: inhibited to a lesser extent
[16]; Homo sapiens, HL-60, 24 hrs. after exposure to 10^-7 M
  activity at 0.1 µM: 10%
[17]; continuous exposure for 5 days, 10^-8 to 10^-6 M
  inhibition of cell growth: progressive inhibition of cell growth
[17]; continuous exposure for 5 days, 10^-8 to 10^-6 M, nitroblue tetrazolium reduction
  differentiation to a non-malignant phenotype: differentiation to a non-malignant phenotype
[17]; four days after exposure to 10^-7 M
  cell population that reduced nitroblue tetrazolium: 95 % of the cell population
[17]; summary statement
  activity as cancer cell differentiating agent (in words): potent cancer cell differentiating agent
[5]
  toxicity to cells used to support virus growth: noncytotoxic
[18]; [26]
  inhibition at 5 µg/mL: 98.7%
  inhibition at 25 µg/mL: 95.7%
[18]; [27]
  inhibition at 5 µg/mL: 98.6%
  inhibition at 25 µg/mL: 99.5%
[18]; 50 μg/ml, mink lung cells, second value of cell, read-out: % PFU Reduction, Herpes Simplex II (second value)
  inhibition at 50 µg/mL: 100%
[18]; non-cytotoxic concentrations
  antiviral activity (in words), Herpes Simplex Type II: excellent activity
[18]; read-out: % PFU Reduction, Herpes Simplex II (first value)
  inhibition at 50 µg/mL: 97.4%
[6]; [28]
  inhibition at 5 µg/mL: 73.2%
  inhibition at 25 µg/mL: 82.1%
  inhibition at 50 µg/mL: 94.6%
[19]
  c-myc mRNA levels: inhibition of c-myc mRNA levels which was more pronounced than the reduction in total cellular RNA synthesis
[20]; during CPE-C treatment
  level of CTP (in words): rapid and pronounced inhibition
  level of UTP, ATP or GTP: not of UTP, ATP or GTP
[20]; following drug removal
  CTP levels following drug removal: sustained reduction in CTP levels
[21]
  inhibition at 5 µg/mL: 0%
  inhibition at 25 µg/mL: 2.5%
  inhibition at 50 µg/mL: 95%
[22]; Human mastadenovirus B, HEp-2, 5 μg/ml, Hep2 cells, read-out: % PFU Reduction, Adenovirus 7
  inhibition at 5 µg/mL: 70%
[22]; Human mastadenovirus B, HEp-2, 25 μg/ml, Hep2 cells, read-out: % PFU Reduction, Adenovirus 7
  inhibition at 25 µg/mL: 80%
[22]; Human mastadenovirus B, HEp-2, 50 μg/ml, Hep2 cells, read-out: % PFU Reduction, Adenovirus 7
  inhibition at 50 µg/mL: 94%
[22]; non-cytotoxic concentrations
  antiviral activity (in words), Adenovirus Type 7: excellent activity

## O=c1ccn([C@@H]2C=C(CO)[C@@H](O)[C@H]2O)c(=O)[nH]1 [CPE-U]
[5]
  toxicity to cells used to support virus growth: noncytotoxic
[21]
  antiviral activity (in words), Dengue Type II: good activity
  inhibition at 5 µg/mL: 2%
  inhibition at 25 µg/mL: 91%
  inhibition at 50 µg/mL: 93%
[23]
  general antiviral activity (in words): less effective as a general antiviral agent

## Nc1ncnc2c1nnn2[C@@H]1C=C(CO)[C@@H](O)[C@H]1O [Formula 8-Aza-CPE-A, 7-Amino-3-[(1'R,2'S,3'R)-4'-hydroxymethyl-2',3'-dihydroxy-4'-cyclopenten-1'-yl]-3H-1,2,3-triazolo[4,5-d]pyrimidine]
[24]
  pIC50: 5.52

## Nc1ncnc2c1ncn2[C@@H]1C=C(CO)[C@@H](O)[C@H]1O [Neplanocin A, 9-[(1'R,2'S,3'R)-4-Hydroxymethyl-2',3'-dihydroxy-4-cyclopenten-1'-yl]adenine]
[1]
  phosphorylation: readily phosphorylated
[2]
  inhibition of AdoHcy-hydrolyzing enzyme (in words): potent inhibitor
[7]; 24 hrs. exposure, equimolar concentration, vs 3-deazaneplanocin
  toxicity to HL-60 cells: more toxic
[3]
  side effects: multiplicity of side effects including cytotoxicity
